Source: patent US5552267A, “Solution for prolonged organ preservation” (priority 1994, dated 1996)

What was measured:
[1] = tested on: pulmonary vasculature; conditions: in vivo; cited from earlier work
[2] = tested on: heart; assay: heterotopic rat cardiac transplant, cAMP series, graft survival/score; format: in vivo, rat (male Sprague-Dawley)
From the text: Preservation solutions included lactated Ringer's (LR) solution Baxter, Edison, N.J.), or LR supplemented with rolipram ZK 62 711, Schering AG, Berlin, Germany), indolidan LY195115, Lilly Research Laboratories, Indianapolis, Ind.), sodium butyrate, 8-bromoadenosine, 8-bromoadenosine 3',5'monophosphate (8-Br-cAMP; Sigma Chemical Co., St. Louis, Mo.), the Rp -isomer of adenosine 3',5'monophosphorothioate (Rp -cAMPS; Biolog, La Jolla, Calif.), the Sp isomer of adenosine 3',5'monophosphorothioate (Sp -cAMPS; Biolog), and N^6,O^2' -dibutyryl adenosine 3',5'monophosphate sodium (db-cAMP; Aldrich, Milwaukee, Wis.). Components were combined within 4 hrs of donor cardiectomy, and preservation solutions were kept at 4° C. University of Wisconsin solution (UW)(2-4 was purchased from Dupont (Wilmington, Del.).
Donor Cardiectomy. Male Sprague-Dawley rats (350-450 grams, Camm Research, Wayne, N.J.) were anesthetized, heparinized (1000 units of heparin given intravenously), and the donor heart removed in the following manner; a midline incision was performed, followed by rapid cardioplegic arrest with 5 ml of cold (4° C.), high potassium solution (NACl, 0.9%, and KCl, 40 mEq/L). The heart was maintained at 4° C. throughout the harvest procedure by the application of a cold saline soaked gauze over its surface. […] The aortic root was flushed with ≈15 ml of the cold preservation solution until the coronary arteries became visibly clear, and the heart remained in the cold storage solution for the indicated duration until the time of transplantation.
Heterotopic Transplant. The same breed/size of rat was used, and similarly anesthetized, but not given heparin. A midline abdominal incision was made, and the infrarenal aorta and vena cava were occluded with a side-biting vascular clamp and longitudinal incisions were made in each vessel. The donor heart was removed from the preservation solution and kept moist with saline-soaked gauze. […] Blood flow was restored to the graft (by removal of the clamp) exactly one hour after removal from the cold preservation solution. […] Ten minutes after removal of the cross-clamp, an electrocardiogram was taken (Grass Polygraph, Quincy, Mass.) and the heart was judged by the same blinded investigators throughout based on the presence/absence of regular contractions and a transplant score (0-5, worst-best, respectively) employing the following criteria: contraction (poor=0, average=1, vigorous=2), tissue turgor (hard=0, average=1, soft=2), and color (dusky=0, pink=1). […] The heterotopic cardiac transplant experiments performed in these studies were done by a single surgeon after establishment of this model and acquisition of surgical expertise, with control and experimental groups interspersed throughout the study period to prevent a time-dependent bias pertaining to surgical skills.
Statistics. Graft survival data and transplant scores were analyzed using the Kruskal-Wallis non-parametric analysis of variance (38). Comparisons of individual treatments were performed using the procedure described by Dunn (39). In addition, the effect of db-cAMP on the time-course of graft failure was quantified by multivariate logistic regression. Graft myeloperoxidase data, microsphere data, and cAMP/adenylate cyclase/phosphodiesterase data from experiments with cultured vascular smooth muscle cells were analyzed by t-tests when 2 treatments were performed or by analysis of variance when 3 or more treatments were performed. In the latter case, post-hoc comparison of treatment groups were tested using Tukey's procedure. Values are expressed as means ±SEM, with a p <0.05 considered statistically significant.

[3] = tested on: cardiac graft vasculature; assay: graft blood flow by latex microspheres, cAMP series; format: in vivo, rat
Procedure: Perfusion of Donor Graft. Ten minutes after restoration of blood flow, a suspension of latex microspheres (0.5 ml of 10 μm diameter microspheres at a final concentration in 10^6 /ml in phosphate-buffered saline containing Tween 80, 0.05%) (E-Z Trac, Los Angeles, Calif.) was injected over 30 seconds into the donor aortic root. After one minute, the heart was rapidly excised, rinsed free of intracavitary and surface blood, and the atria and great vessels were removed. The ventricles were cut into pieces, each piece weighed, and then digested by alkaline hydrolysis, centrifuged and washed according to the manufacturer's instructions. Beads in each piece were then counted in an Improved Neubauer hemocytometer VWR Scientific, Piscataway, N.J.). Results are expressed as number of spheres per (40X) field per gram of ventricle. A minimum of ten fields were counted and the mean ± SEM is reported.

[4] = tested on: neutrophil infiltration of cardiac graft; assay: graft myeloperoxidase activity/histology (leukocyte infiltration), cAMP series; format: in vivo, rat
Procedure: Myeloperoxidase assay/histology. Ten minutes following restoration of blood flow, transplanted hearts were excised and the aortic root was flushed for 5 minutes (rate of 2 ml/minute controlled by roller pump) with normal saline (Baxter, Edison, N.J.), the atria and great vessels were removed, and intracavitary blood was evacuated. Remaining ventricular pieces were weighed, and homogenized in phosphate buffer (50 mM; pH 7.4, 5 ml/gm of tissue) containing hexadecyltrimethylammonium bromide (0.5%; HTAB, [Sigma]) and frozen at -80° C. The myeloperoxidase assay was performed, as described (29), by thawing the sample, centrifuging at 40,000 g for 10 minutes at 4° C., and decanting the supernatant, which was assayed for myeloperoxidase activity using standard chromogenic spectrophotometric technique: test sample (0.1 ml) was added to phosphate buffer (50 mM; pH 6.0) containing O-dianisidine dihydrochloride (Sigma), hydrogen peroxide (0.0005%), and change in absorbance at 460 nm was measured over 5 min (increase in OD was linear over this time interval). For histologic study, cardiac graft samples were fixed in an ascending series of aldehydes, embedded, sectioned, and stained with hematoxylin and eosin.

[5] = in vitro toxicity to endothelial cells; format: cell-based; conditions: data not shown, read-out: concentration toxic to endothelial cells
[6] = tested on: lung; assay: orthotopic rat left lung transplantation, nitroglycerin series; format: in vivo, rat (male Lewis)
[7] = tested on: lung; conditions: in vivo; cited from earlier work
[8] = tested on: vascular smooth muscle; conditions: cited from earlier work

In the case of `CCCOc1ccccc1-c1nc2[nH]nnc2c(=O)[nH]1` [M&B 22948, 2-o-propoxyphenyl-8-azapurin-6-one], the “effect on vasodilators” value [1] is given as “augments the pulmonary vasodilating effects of NO(cGMP)-dependent vasodilators, but not those of a cAMP-dependent vasodilator”.
For `CCCC(=O)Nc1ncnc2c1ncn2[C@@H]1O[C@@H]2COP(=O)(O)O[C@H]2[C@H]1OC(=O)CCC` [db-cAMP, N^6, O^2' -dibutyryl adenosine 3',5'monophosphate], the “concentration for optimal/maximal preservation” value ([2]; 12 h in LR) was 1 to 2 mM, the graft survival ([2]; 12 h preservation in LR) was 90% and the “graft blood flow” value ([3]; 12 h in LR, db-cAMP 2 mM vs LR alone) was “significant increase in blood flow”. For the same compound, the “fold increase in graft blood flow” value ([3]; vs without db-cAMP) was 5.5 fold, the “fold decrease in neutrophil infiltration / myeloperoxidase activity” value ([4]; 12 h, db-cAMP 2 mM in LR vs LR alone) was 3.2 fold and the “PMNs in blood vessel by histology” value ([4]; 12 h in LR, 10 min reperfusion, db-cAMP 2 mM where added) was “no PMNs”. For the same compound, the MCC [5] was > 4 mM.
In the case of `NNc1nncc2ccccc12` [hydralazine], the “pulmonary artery flushing time” value ([6]; 30 mL at constant pressure during harvest) is given as 69.3 ± 4.5 s, the recipient survival ([6]; 6 h in EC, 30 min, supplements NTG 0.1 mg/mL, hydralazine 0.02 μg/mL) is given as 33% and the “effect on lung preservation” value [7] is given as “not proven beneficial in lung preservation”.
For nitric oxide [NO], the “minimal concentration relaxing vascular smooth muscle” value [8] is listed as “less than 15 nM”.
